Reference: US20080319042A1, “Compositions and methods for treatment of liver disease” (priority 2007, published 2008)

Tested on: Hep G2 2.2.15 cells
Experiment: Cytotoxicity Assay (MTT)
Format: cell-based, human
Protocol: Hep G2 2.2.15 cells (120 μl) were seeded onto 96-well plates at a concentration of 2×10^5 cells/mL. After incubation for 72 h, serial dilutions of the test samples were added to monolayer Hep G2 2.2.15 cells, and culture at 37° C. in a humidified atmosphere of 5% CO2 in air for an additional 9 days, and the medium with sample was changed every 3 days, 10 μL 10% aqueous DMSO was used as control group. After incubation, the supernatant was taken out and 90 μL of DMEM and 10 μL of the 5 mg/ml MTT (3-[4,5-dimethylthiazol-2-yl]-2,5-diphenyltetrazolium bromide) solution was then added to each well, and the plates were incubated for an additional 3 hours. The MTT was removed, and to each well was added 100 μl of DMSO. The plates were agitated on an orbital shaker at 50 rpm at room temperature for 5 min. The optical density of each sample was measured at 490 nm. The percent absorbance of the samples treated with the test material was compared to the untreated sample to calculate the percentage of control. Data are expressed as relative viability, with cytotoxicity indicated by <100% relative viability.

In the case of COC(=O)C1=COC(O)C2C1C(O)C(O)C2(C)O (mixture of isomers) [lamiridosin], the “Toxicity to Hep G2 2.2.15 cells (Table 2)” value (75 μg/mL) is reported as “Toxic”, the “Toxicity to Hep G2 2.2.15 cells (Table 2)” value (150 μg/mL) is reported as “Toxic” and the “cytotoxicity to the Hep G2 2.2.15 cells” value (at doses greater than 50 μg/ml) is reported as “non-cytotoxic”.
